Results reported in US20230047788A1, “COMPOSITIONS COMPRISING 5-CHOLESTEN-3, 25-DIOL, 3-SULFATE (25HC3S) OR PHARMACEUTICALLY ACCEPTABLE SALT THEREOF AND AT LEAST ONE CYCLIC OLIGOSACCHARIDE” (Virginia Commonwealth University, priority 2016, published 2023).

Experiment: Effect of phosphate and borate buffers on chemical stability (% remaining, impurity profile), osmolality, pH and appearance of 25HC3S 30 mg/mL in 250 mg/mL HPBCD at 80°C and 60°C
Type: physicochemical
Set-up: First Order Rate Constant: unit not given beside the values
Method: A total of six 25HC3S formulations at 30 mg/mL in 250 mg/mL of 2-hydroxypropyl beta cyclodextrin (HPBCD) containing 10, 20, 50 and 100 mM phosphate buffers at pH 7.5 to 8.1 and 10 and 50 mM borate buffers at pH 9.4 were prepared for the stability study. The chemical stability (measured as % remaining of 25HC3S) and physical stability (osmolality, pH and appearance) of the formulations were monitored under accelerated conditions for up to 7 days at 80° C. and up to 29 days at 60° C.
Two stock solutions of phosphate buffer at 100 and 200 mM at pH 7.4 and 7.3, respectively and one borate buffer at 100 mM at pH 9.3 were prepared (Tables 22A and 22B) and used for 250 mg/mL HPBCD vehicles preparation (Table 23).
Approximately 1200 mg each of 25HC3S was weighed into 40 mL volumetric flasks and diluted to volume with the six HPBCD vehicles containing 10-100 mM phosphate buffers or 10 and 50 mM borate buffers, respectively (Table 24). The final concentration of 25HC3S was 30 mg/mL (wt/volume, without adjusting for API purity). Aliquots of 2 mL of each formulation were filled into 2 mL glass vials, stoppered and sealed for stability sample set-up at 60° C. and 80° C. to study the effect of phosphate buffer (pH 7.5-8.1) and borate buffer (pH 9.4) at various buffer concentrations on the stability of the HPBCD formulations (Table 26).
A 0.5 mL of sample solution was transferred to a 25 mL volumetric flask and QS'ed with methanol/water=95/5 for 25HC3S concentration determination by HPLC. The % remaining of 25HC3S was calculated as follows: […]

[1] = 250 mg/mL HPBCD, 10 mM borate, 80°C, day 0
[2] = 250 mg/mL HPBCD, 10 mM borate, 80°C, day 1
[3] = 250 mg/mL HPBCD, 10 mM borate, 80°C, day 2
[4] = 250 mg/mL HPBCD, 10 mM borate, 80°C, day 3
[5] = 250 mg/mL HPBCD, 10 mM borate, 80°C, day 7
[6] = 250 mg/mL HPBCD, 10 mM borate, day 0
[7] = 250 mg/mL HPBCD, 10 mM phosphate, 80°C, day 0
[8] = 250 mg/mL HPBCD, 10 mM phosphate, 80°C, day 1
[9] = 250 mg/mL HPBCD, 10 mM phosphate, 80°C, day 2
[10] = 250 mg/mL HPBCD, 10 mM phosphate, 80°C, day 3
[11] = 250 mg/mL HPBCD, 10 mM phosphate, 80°C, day 7
[12] = 250 mg/mL HPBCD, 10 mM phosphate, day 0
[13] = 250 mg/mL HPBCD, 20 mM phosphate, 80°C, day 0
[14] = 250 mg/mL HPBCD, 20 mM phosphate, 80°C, day 1
[15] = 250 mg/mL HPBCD, 20 mM phosphate, 80°C, day 2
[16] = 250 mg/mL HPBCD, 20 mM phosphate, 80°C, day 3
[17] = 250 mg/mL HPBCD, 20 mM phosphate, 80°C, day 7

## C[C@H](CCCC(C)(C)O)[C@H]1CC[C@H]2[C@@H]3CC=C4C[C@@H](OS(=O)(=O)[O-])CC[C@]4(C)[C@H]3CC[C@]12C.[Na+] [25HC3S, 5-cholesten-3, 25-diol, 3-sulfate]
10 mM borate, 80°C
  Calculated t90: 2.0 days
  First Order Rate Constant: −0.0463
  Intercept (first order fit of % remaining): 98.9
10 mM phosphate, 80°C
  Calculated t90: 2.3 days
  First Order Rate Constant: −0.0462
  Intercept (first order fit of % remaining): 99.9
20 mM phosphate, 80°C
  Calculated t90: 2.2 days
  First Order Rate Constant: −0.0437
  Intercept (first order fit of % remaining): 99.2
50 mM borate, 80°C
  Calculated t90: 1.9 days
  First Order Rate Constant: −0.0484
  Intercept (first order fit of % remaining): 98.8
50 mM phosphate, 80°C
  Calculated t90: 2.2 days
  First Order Rate Constant: −0.0451
  Intercept (first order fit of % remaining): 99.5
100 mM phosphate, 80°C
  Calculated t90: 2.2 days
  First Order Rate Constant: −0.0430
  Intercept (first order fit of % remaining): 99
250 mg/mL HPBCD, 10 mM borate, 60°C, 29 days
  pH: 8.90
[1]
  25HC3S concentration: 28.58 mg/mL
  % Remaining of 25HC3S: 100.0%
[2]
  25HC3S concentration: 26.90 mg/mL
  % Remaining of 25HC3S: 94.1%
  Osmolality: 318 mmol/kg
  pH: 9.12
[3]
  25HC3S concentration: 25.63 mg/mL
  % Remaining of 25HC3S: 89.7%
  Osmolality: 323 mmol/kg
  pH: 8.92
[4]
  25HC3S concentration: 24.40 mg/mL
  % Remaining of 25HC3S: 85.4%
  Osmolality: 328 mmol/kg
  pH: 8.60
[5]
  25HC3S concentration: 20.55 mg/mL
  % Remaining of 25HC3S: 71.9%
  Appearance: light brown
  Osmolality: 352 mmol/kg
  pH: 7.06
[6]
  Osmolality: 316 mmol/kg
  pH: 9.36
250 mg/mL HPBCD, 10 mM phosphate, 60°C, 29 days
  pH: 7.04
[7]
  25HC3S concentration: 28.45 mg/mL
  % Remaining of 25HC3S: 100.0%
[8]
  25HC3S concentration: 27.03 mg/mL
  % Remaining of 25HC3S: 95.0%
  Osmolality: 291 mmol/kg
  pH: 7.28
[9]
  25HC3S concentration: 26.00 mg/mL
  % Remaining of 25HC3S: 91.4%
  Osmolality: 286 mmol/kg
  pH: 6.82
[10]
  25HC3S concentration: 24.70 mg/mL
  % Remaining of 25HC3S: 86.8%
  Osmolality: 294 mmol/kg
  pH: 6.34
[11]
  25HC3S concentration: 20.58 mg/mL
  % Remaining of 25HC3S: 72.3%
  Osmolality: 300 mmol/kg
  pH: 2.67
[12]
  Osmolality: 273 mmol/kg
  pH: 8.09
250 mg/mL HPBCD, 20 mM phosphate, 60°C, 29 days
  pH: 7.17
[13]
  25HC3S concentration: 28.63 mg/mL
  % Remaining of 25HC3S: 100.0%
[14]
  25HC3S concentration: 27.03 mg/mL
  % Remaining of 25HC3S: 94.4%
  Osmolality: 325 mmol/kg
  pH: 7.35
[15]
  25HC3S concentration: 26.05 mg/mL
  % Remaining of 25HC3S: 91.0%
  Osmolality: 328 mmol/kg
  pH: 7.13
[16]
  25HC3S concentration: 24.70 mg/mL
  % Remaining of 25HC3S: 86.3%
  Osmolality: 328 mmol/kg
  pH: 6.80
[17]
  25HC3S concentration: 21.00 mg/mL
  % Remaining of 25HC3S: 73.3%
  Osmolality: 354 mmol/kg
  pH: 5.75
250 mg/mL HPBCD, 20 mM phosphate, day 0
  Osmolality: 311 mmol/kg
